Test results as given in patent US10179782B2, “Substituted sulfonamide compounds” (Genentech, Inc., priority 2016, dated 2019).

Biological target: T1, human TRPA1 (Homo sapiens, UniProt O75762)
T1 construct: expressed in transfected cells; host or cells: CHO cells
Assay: TRPA1 FLIPR Tetra calcium influx assay in CHO cells (block of cinnamaldehyde-induced calcium influx)
Format: cell-based
Conditions: Table 2; CHO cells expressing TRPA1; agonist cinnamaldehyde 75 uM; 20 min compound incubation; Hill coefficient fixed to 1.5; read-out: hTRPA1 CHO Ca2+ AUC EVO (IC50)
Outline: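 IC50s were derived from a Hill fit with n fixed at 1.5, using inhibition of FLIPR Tetra calcium signals in dye-loaded TRPA1-CHO cells. Cells sat with compound 20 min at room temperature in HBSS with 20 mM HEPES (pH 7.4) and 0.02% BSA, then were challenged with cinnamaldehyde near EC80: 75 µM human, 45 µM rat.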

T1 sequence (O75762 whole entry): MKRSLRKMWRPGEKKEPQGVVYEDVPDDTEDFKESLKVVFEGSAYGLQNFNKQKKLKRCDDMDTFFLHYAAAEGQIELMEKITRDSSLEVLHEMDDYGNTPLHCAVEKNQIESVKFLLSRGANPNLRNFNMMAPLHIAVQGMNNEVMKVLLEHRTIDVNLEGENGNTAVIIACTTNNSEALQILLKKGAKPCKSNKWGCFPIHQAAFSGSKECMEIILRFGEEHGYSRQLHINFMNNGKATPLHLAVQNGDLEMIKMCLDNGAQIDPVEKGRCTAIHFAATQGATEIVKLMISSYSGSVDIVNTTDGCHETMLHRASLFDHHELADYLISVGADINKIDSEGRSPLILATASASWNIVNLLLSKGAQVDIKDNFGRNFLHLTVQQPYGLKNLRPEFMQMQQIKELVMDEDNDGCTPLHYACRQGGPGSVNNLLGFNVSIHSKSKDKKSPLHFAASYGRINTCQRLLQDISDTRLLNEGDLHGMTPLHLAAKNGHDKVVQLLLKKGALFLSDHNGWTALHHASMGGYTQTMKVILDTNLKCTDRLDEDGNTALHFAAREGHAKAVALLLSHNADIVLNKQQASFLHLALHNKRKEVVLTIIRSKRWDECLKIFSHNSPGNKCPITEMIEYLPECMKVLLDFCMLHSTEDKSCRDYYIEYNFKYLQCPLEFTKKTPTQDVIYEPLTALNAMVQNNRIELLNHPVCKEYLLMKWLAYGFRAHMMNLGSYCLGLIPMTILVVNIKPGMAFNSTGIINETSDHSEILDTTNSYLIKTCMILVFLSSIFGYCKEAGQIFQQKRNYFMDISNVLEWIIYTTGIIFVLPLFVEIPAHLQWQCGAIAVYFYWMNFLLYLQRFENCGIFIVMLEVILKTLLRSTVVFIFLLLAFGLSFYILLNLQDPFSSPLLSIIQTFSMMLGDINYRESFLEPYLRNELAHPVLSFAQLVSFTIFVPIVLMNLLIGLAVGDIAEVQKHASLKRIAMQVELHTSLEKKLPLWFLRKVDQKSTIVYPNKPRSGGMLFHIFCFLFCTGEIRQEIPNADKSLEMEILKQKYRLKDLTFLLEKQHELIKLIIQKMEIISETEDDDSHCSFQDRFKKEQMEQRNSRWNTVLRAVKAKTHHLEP

Row | IC50 | SMILES
1 | 3.82 nM | C[C@H]1[C@H](F)C[C@@H](C(=O)NCc2cc(-c3cnc(C(F)(F)F)nc3)cc(C3CC3)n2)N1S(=O)(=O)c1ccc(F)cc1 [Example 130, (2S,4R,5S)-N-[[6-cyclopropyl-4-[2-(trifluoromethyl)pyrimidin-5-yl]-2-pyridyl]methyl]-4-fluoro-1-(4-fluorophenyl)sulfonyl-5-methyl-pyrrolidine-2-carboxamide]
2 | 4.04 nM | C[C@H]1[C@H](F)C[C@@H](C(=O)NCc2cc(-c3cnc(C(F)(F)F)nc3)c(F)c(C3CC3)n2)N1S(=O)(=O)c1ccc(F)cc1 [Example 131, (2S,4R,5S)-N-[[6-cyclopropyl-5-fluoro-4-[2-(trifluoromethyl)pyrimidin-5-yl]-2-pyridyl]methyl]-4-fluoro-1-(4-fluorophenyl)sulfonyl-5-methyl-pyrrolidine-2-carboxamide]
3 | 15.2 nM | C[C@H]1[C@H](F)C[C@@H](C(=O)NCc2cc(OC[C@@H]3C[C@H]3C(F)(F)F)nc(C3CC3)n2)N1S(=O)(=O)c1ccc(F)cc1 [Example 132, (2S,4R,5S)-N-[[2-cyclopropyl-6-[[(1R,2R)-2-(trifluoromethyl)cyclopropyl]methoxy]pyrimidin-4-yl]methyl]-4-fluoro-1-(4-fluorophenyl)sulfonyl-5-methyl-pyrrolidine-2-carboxamide]
4 | 30.5 nM | C[C@H]1[C@H](F)C[C@@H](C(=O)NCc2cc(-c3cnc(C(F)(F)F)nc3)c(C(F)F)cn2)N1S(=O)(=O)c1ccc(F)cc1 [Example 133, (2S,4R,5S)-N-[[5-(difluoromethyl)-4-[2-(trifluoromethyl)pyrimidin-5-yl]-2-pyridyl]methyl]-4-fluoro-1-(4-fluorophenyl)sulfonyl-5-methyl-pyrrolidine-2-carboxamide]
5 | 32.6 nM | C[C@H]1[C@H](F)C[C@@H](C(=O)NCc2cc(-c3cnc(C(F)(F)F)c(C#N)c3)ncc2F)N1S(=O)(=O)c1ccc(F)cc1 [Example 134, (2S,4R,5S)-N-[[2-[5-cyano-6-(trifluoromethyl)-3-pyridyl]-5-fluoro-4-pyridyl]methyl]-4-fluoro-1-(4-fluorophenyl)sulfonyl-5-methyl-pyrrolidine-2-carboxamide]
6 | 19.3 nM | C[C@H]1[C@H](F)C[C@@H](C(=O)NCc2nc(-c3cnc(C(F)(F)F)nc3)ncc2C(F)(F)F)N1S(=O)(=O)c1ccc(F)cc1 [Example 135, (2S,4R,5S)-4-fluoro-1-(4-fluorophenyl)sulfonyl-5-methyl-N-[[5-(trifluoromethyl)-2-[2-(trifluoromethyl)pyrimidin-5-yl]pyrimidin-4-yl]methyl]pyrrolidine-2-carboxamide]
7 | 8.11 nM | C[C@H]1[C@H](F)C[C@@H](C(=O)NCc2cc(-c3cnc(C(F)(F)F)nc3)ncc2CC(F)(F)F)N1S(=O)(=O)c1ccc(F)cc1 [Example 136, (2S,4R,5S)-4-fluoro-1-(4-fluorophenyl)sulfonyl-5-methyl-N-[[5-(2,2,2-trifluoroethyl)-2-[2-(trifluoromethyl)pyrimidin-5-yl]-4-pyridyl]methyl]pyrrolidine-2-carboxamide]
8 | 0.7 nM | C[C@H]1[C@H](F)C[C@@H](C(=O)NCc2cc(-c3cnc(C(F)(F)F)nc3)nc(C3CC3)c2C(F)(F)F)N1S(=O)(=O)c1ccc(F)cc1 [Example 137, (2S,4R,5S)-N-[[2-cyclopropyl-3-(trifluoromethyl)-6-[2-(trifluoromethyl)pyrimidin-5-yl]-4-pyridyl]methyl]-4-fluoro-1-(4-fluorophenyl)sulfonyl-5-methyl-pyrrolidine-2-carboxamide]
9 | 11.7 nM | C[C@H]1[C@H](F)C[C@@H](C(=O)NCc2cc(-c3cnc(C(F)(F)F)nc3)ncc2CF)N1S(=O)(=O)c1ccc(F)cc1 [Example 138]
10 | 2.77 nM | C[C@H]1[C@H](F)C[C@@H](C(=O)NCc2cc(-c3ccc(C(F)(F)F)cc3)ncc2OC(F)(F)F)N1S(=O)(=O)c1ccc(F)cc1 [Example 139, (2S,4R,5S)-4-fluoro-1-(4-fluorophenyl)sulfonyl-5-methyl-N-[[5-(trifluoromethoxy)-2-[4-(trifluoromethyl)phenyl]-4-pyridyl]methyl]pyrrolidine-2-carboxamide]
11 | 3.56 nM | C[C@H]1[C@H](F)C[C@@H](C(=O)NCc2cc([C@H]3C[C@H](OC(F)(F)F)C3)ncc2F)N1S(=O)(=O)c1ccc(F)cc1 [Example 140, (2S,4R,5S)-4-fluoro-1-(4-fluorophenyl)sulfonyl-N-[[5-fluoro-2-[3-(trifluoromethoxy)cyclobutyl]-4-pyridyl]methyl]-5-methyl-pyrrolidine-2-carboxamide]
12 | 20.4 nM | C[C@H]1[C@H](F)C[C@@H](C(=O)NCc2cc(-c3cnc(C4CC4)nc3)ncc2F)N1S(=O)(=O)c1ccc(F)cc1 [Example 141, (2S,4R,5S)-N-[[2-(2-cyclopropylpyrimidin-5-yl)-5-fluoro-4-pyridyl]methyl]-4-fluoro-1-(4-fluorophenyl)sulfonyl-5-methyl-pyrrolidine-2-carboxamide]
13 | 12 nM | C[C@H]1[C@H](F)C[C@@H](C(=O)NCc2cc(-c3cnc(C(F)(F)F)nc3)c(C#N)c(C3CC3)n2)N1S(=O)(=O)c1ccc(F)cc1 [Example 142, (2S,4R,5S)—N-([5-cyano-6-cyclopropyl-4-[2-(trifluoromethyl)pyrimidin-5-yl]pyridin-2-yl]methyl)-4-fluoro-1-[(4-fluorobenzene)sulfonyl]-5-methylpyrrolidine-2-carboxamide]
14 | 22.4 nM | C[C@H]1[C@H](F)C[C@@H](C(=O)NCc2cc(OCCC3(C(F)(F)F)CC3)nc(C3CC3)n2)N1S(=O)(=O)c1ccc(F)cc1 [Example 143, (2S,4R,5S)-N-[[2-cyclopropyl-6-[2-[1-(trifluoromethyl)cyclopropyl]ethoxy]pyrimidin-4-yl]methyl]-4-fluoro-1-(4-fluorophenyl)sulfonyl-5-methyl-pyrrolidine-2-carboxamide]
15 | 17 nM | C[C@H]1[C@H](F)C[C@@H](C(=O)NCc2cc(-c3cnc(C(F)(F)F)c(F)c3)c(F)cn2)N1S(=O)(=O)c1ccc(F)cc1 [Example 144, (2S,4R,5S)-4-fluoro-N-[[5-fluoro-4-[5-fluoro-6-(trifluoromethyl)-3-pyridyl]-2-pyridyl]methyl]-1-(4-fluorophenyl)sulfonyl-5-methyl-pyrrolidine-2-carboxamide]
16 | 8.36 nM | C[C@H]1[C@H](F)C[C@@H](C(=O)NCc2cc(N3CC[C@H](OC(F)(F)F)C(F)(F)C3)ncc2F)N1S(=O)(=O)c1ccc(F)cc1 [Example 145, (2S,4R,5S)-N-[[2-[(4S)-3,3-difluoro-4-(trifluoromethoxy)-1-piperidyl]-5-fluoro-4-pyridyl]methyl]-4-fluoro-1-(4-fluorophenyl)sulfonyl-5-methyl-pyrrolidine-2-carboxamide]
17 | 35 nM | C[C@H]1[C@H](F)C[C@@H](C(=O)NCc2cc(-c3cnc(C(F)(F)F)nc3)c(OC(F)F)cn2)N1S(=O)(=O)c1ccc(F)cc1 [Example 146, (2S,4R,5S)-N-[[5-(difluoromethoxy)-4-[2-(trifluoromethyl)pyrimidin-5-yl]-2-pyridyl]methyl]-4-fluoro-1-(4-fluorophenyl)sulfonyl-5-methyl-pyrrolidine-2-carboxamide]
18 | 24.5 nM | C[C@H]1[C@H](F)C[C@@H](C(=O)NCc2cn([C@H]3CC[C@H](C(F)(F)F)CC3)nc2C(F)(F)F)N1S(=O)(=O)c1ccc(F)cc1 [Example 147, (2S,4R,5S)-4-fluoro-1-(4-fluorophenyl)sulfonyl-5-methyl-N-[[3-(trifluoromethyl)-1-[4-(trifluoromethyl)cyclohexyl]pyrazol-4-yl]methyl]pyrrolidine-2-carboxamide]
19 | 7.64 nM | C[C@H]1[C@H](F)C[C@@H](C(=O)NCc2cn(-c3cnc(C(F)(F)F)s3)nc2Cl)N1S(=O)(=O)c1ccc(F)cc1 [Example 148, (4R,5S)-N-[[3-chloro-1-[2-(trifluoromethyl)thiazol-5-yl]pyrazol-4-yl]methyl]-4-fluoro-1-(4-fluorophenyl)sulfonyl-5-methyl-pyrrolidine-2-carboxamide]
20 | 0.756 nM | O=C(NCc1cc(-c2cnc(C(F)(F)F)nc2)ncc1C(F)(F)F)[C@@H]1[C@H]2C[C@H]2CN1S(=O)(=O)c1ccc(F)cc1 [Example 149, (1S,2S,5R)-3-(4-fluorophenyl)sulfonyl-N-[[5-(trifluoromethyl)-2-[2-(trifluoromethyl)pyrimidin-5-yl]-4-pyridyl]methyl]-3-azabicyclo[3.1.0]hexane-2-carboxamide]
21 | 5.72 nM | O=C(NCc1cc(-c2cnc(C(F)(F)F)nc2)ncc1C(F)F)[C@@H]1[C@H]2C[C@H]2CN1S(=O)(=O)c1ccc(F)cc1 [Example 150, (1R,4S,5S)-N-[[5-(difluoromethyl)-2-[2-(trifluoromethyl)pyrimidin-5-yl]-4-pyridyl]methyl]-3-(4-fluorophenyl)sulfonyl-3-azabicyclo[3.1.0]hexane-4-carboxamide]
22 | 1 nM | O=C(NCc1cc(-c2cnc(C(F)(F)F)nc2)nc(C2CC2)n1)[C@@H]1[C@H]2C[C@H]2CN1S(=O)(=O)c1ccc(F)cc1 [Example 151, (1S,2S,5R)-N-[[2-cyclopropyl-6-[2-(trifluoromethyl)pyrimidin-5-yl]pyrimidin-4-yl]-methyl]-3-(4-fluorophenyl)sulfonyl-3-azabicyclo[3.1.0]hexane-2-carboxamide]
23 | 3.03 nM | C[C@H]1[C@H](F)C[C@@H](C(=O)NCc2cc(-c3cnc(C(F)(F)F)nc3)cnc2C(F)(F)F)N1S(=O)(=O)c1ccc(F)cc1 [Example 152, (2S,4R,5S)-4-fluoro-1-(4-fluorophenyl)sulfonyl-5-methyl-N-[[2-(trifluoromethyl)-5-[2-(trifluoromethyl)pyrimidin-5-yl]-3-pyridyl]methyl]pyrrolidine-2-carboxamide]
